# From patent US12390470B2, “1-methylxanthine-based bioactive composition and method of use thereof” (Ingenious Ingredients, LP, priority 2021, dated 2025)
# What was measured:
# [1] = tested on: male Swiss Albino mice; assay: Passive shock avoidance test, scopolamine-induced amnesia; assay type: in vivo
# Method: Behavioral studies were conducted in mice to examine the learning and memory ability by using Cook's pole and Passive shock avoidance test.
# (§1) Twenty-four 8-week-old male Swiss Albino mice were housed in an animal room at a constant temperature (22±3° C.) and humidity (30%-70%) under a 12:12 h light-dark cycle with standard laboratory diet (Purina 5L79, Rat and Mouse 18% protein; PMI Nutrition International, Brentwood, MO, USA). Distilled water was provided ad libitum. All animal experiments were reviewed and approved by the Institutional Animal Ethical Committee (IAEC) of Radiant Research Services Pvt. Ltd (Bangalore, India). All research was conducted in accordance with the guidelines of the committee for the purpose of control and supervision of experiments on animals.
# After one week of acclimation, the animals were randomly divided by body weight into three groups (n=8 per group in each test) for oral treatment once a day, at approximately same time each day (±1 hour), for 7 consecutive days: (1) vehicle control or (2) 1-methylxanthine or (3) 1-methylxanthine plus paraxanthine. The dose administered to the mice was calculated using US Food and Drug Administration for human equivalence doses (HED), assuming a human weight of 60 kg. […] Food intake was monitored daily while water intake was ad libitum. […]
# [2] = tested on: participants; assay: Diastolic blood pressure, crossover vs caffeine; assay type: in vivo, human
# Method: All supplements were orally ingested with 8 fluid ounces of cold tap water. Resting Heart Rate, Systolic and Diastolic Blood Pressure was measured at baseline, 30, 60, 90, 120 and 180 minutes after ingestion.
# [3] = tested on: catalase; assay: Catalase level in young and old rats; assay type: in vivo
# Method: as §1, with “young (6-8 Week) and twenty-four old (14-16 Months)” for “8-week-old male”, “Wistar rats” for “mice”
# After one week of acclimation, the animals were randomly divided by body weight and age into six groups (n=8 per group in each test) for oral treatment once a day, at approximately same time each day (±1 hour), for 10 consecutive days: (1) vehicle control or (2) 1-methylxanthine or (3) 1-methylxanthine plus paraxanthine. The dose administered to the rat was calculated using US Food and Drug Administration for human equivalence doses (HED), assuming a human weight of 60 kg. […] Food intake was monitored daily while water intake was ad libitum. […] Body weight was recorded weekly. […]
# [4] = tested on: participants; assay: Systolic blood pressure, crossover vs caffeine; assay type: in vivo, human
# Text: All supplements were orally ingested with 8 fluid ounces of cold tap water.
# [5] = Person one, time 0, 200 mg oral
# [6] = Person two, time 0, 200 mg oral
smiles,measurement,setting,value
"Cn1c(=O)[nH]c2nc[nH]c2c1=O [1-methylxanthine, 1-Methyl-3H-purine-2,6-dione]","Transfer latency, passive shock avoidance test","[1]; mice, oral 7 days, scopolamine",24.25 ± 2.60 s
same,Transfer latency faster than control,"[1]; mouse, in vivo",9.3%
same,diastolic blood pressure reduced in comparison to CA,[2]; 200 mg oral,12%
same,Diastolic Blood Pressure MEAN (30-180),[2]; Average,70.6 mm Hg
same,Diastolic Blood Pressure Mean Δ from 0,[2]; Average,−1.4 mm Hg
same,Diastolic Blood Pressure MEAN (30-180),[2]; Person one,71.6 mm Hg
same,Diastolic Blood Pressure Mean Δ from 0,[2]; Person one,−0.4 mm Hg
same,Diastolic Blood Pressure Δ vs. CA,[2]; Person one,−5.0 mm Hg
same,Diastolic Blood Pressure,"[2]; Person one, 30 min",71 mm Hg
same,Diastolic Blood Pressure,"[2]; Person one, 60 min",68 mm Hg
same,Diastolic Blood Pressure,"[2]; Person one, 90 min",69 mm Hg
same,Diastolic Blood Pressure,"[2]; Person one, 120 min",71 mm Hg
same,Diastolic Blood Pressure,"[2]; Person one, 180 min",79 mm Hg
same,Diastolic Blood Pressure,[2]; [5],72 mm Hg
same,Diastolic Blood Pressure MEAN (30-180),[2]; Person two,69.6 mm Hg
same,Diastolic Blood Pressure Mean Δ from 0,[2]; Person two,−2.4 mm Hg
same,Diastolic Blood Pressure Δ vs. CA,[2]; Person two,−12.2 mm Hg
same,Diastolic Blood Pressure,"[2]; Person two, 30 min",79 mm Hg
same,Diastolic Blood Pressure,"[2]; Person two, 60 min",62 mm Hg
same,Diastolic Blood Pressure,"[2]; Person two, 90 min",70 mm Hg
same,Diastolic Blood Pressure,"[2]; Person two, 120 min",72 mm Hg
same,Diastolic Blood Pressure,"[2]; Person two, 180 min",65 mm Hg
same,Diastolic Blood Pressure,[2]; [6],72 mm Hg
same,catalase levels,[3]; old rats,32.78±1.26 U/mL
same,catalase levels,[3]; young rats,33.32±1.68 U/mL
same,systolic blood pressure change from baseline,[4]; 200 mg oral,did not increase
same,systolic blood pressure reduced in comparison to CA,[4]; 200 mg oral,6.1%
same,Systolic Blood Pressure MEAN (30-180),[4]; Average,117.2 mm Hg
same,Systolic Blood Pressure MEAN (30-180),[4]; Person one,123.6 mm Hg
same,Systolic Blood Pressure Mean Δ from 0,[4]; Person one,−1.6 mm Hg
same,Systolic Blood Pressure Δ vs. CA,[4]; Person one,−6.4 mm Hg
same,Systolic Blood Pressure,"[4]; Person one, 30 min",116 mm Hg
same,Systolic Blood Pressure,"[4]; Person one, 60 min",136 mm Hg
same,Systolic Blood Pressure,"[4]; Person one, 90 min",108 mm Hg
same,Systolic Blood Pressure,"[4]; Person one, 120 min",116 mm Hg
same,Systolic Blood Pressure,"[4]; Person one, 180 min",142 mm Hg
same,Systolic Blood Pressure,[4]; [5],125 mm Hg
same,Systolic Blood Pressure MEAN (30-180),[4]; Person two,110.8 mm Hg
same,Systolic Blood Pressure Mean Δ from 0,[4]; Person two,−2.2 mm Hg
same,Systolic Blood Pressure Δ vs. CA,[4]; Person two,−9.6 mm Hg
same,Systolic Blood Pressure,"[4]; Person two, 30 min",125 mm Hg
same,Systolic Blood Pressure,"[4]; Person two, 60 min",110 mm Hg
same,Systolic Blood Pressure,"[4]; Person two, 90 min",113 mm Hg
same,Systolic Blood Pressure,"[4]; Person two, 120 min",114 mm Hg
same,Systolic Blood Pressure,"[4]; Person two, 180 min",92 mm Hg
same,Systolic Blood Pressure,[4]; [6],113 mm Hg
